Test results from publication PMC2673211, “Nitric oxide activates ATP-sensitive potassium channels in mammalian sensory neurons: action by direct S-nitrosylation” (Molecular Pain, 2009).
Like-named read-outs stand apart in the source and are kept apart here. Values belong to the compound of their own block, whether it stands above or below them.

How the values were obtained:
[1] = target: T1, KATP channels in large DRG neurons (Rattus norvegicus, UniProt P70673+Q09429); test: Cell-attached single-channel patch-clamp recording of KATP channel activity (NPo); format: cell-based; conditions: for NPo 10 min after SNAP following pretreatment with KT 5823: KT 5823 1 μM for 20 min; for NPo 10 min after SNAP following pretreatment with KT 5823 / NPo 10 min after SNAP following pretreatment with ODQ: then SNAP 100 μM; for NPo 10 min after SNAP following pretreatment with ODQ: ODQ 10 μM for 20 min; for NPo, DNP-induced channel opening: DNP 100 μM bath application, -60 mV; for baseline NPo after pretreatment with L-NAME: L-NAME 100 μM for 20 minutes
T1 construct: native KATP channels in large DRG neurons; endogenous in cells; host or cells: acutely dissociated large-diameter neurons from rat L4/L5 dorsal root ganglia (sham-operated or spinal nerve ligated animals)
Source text: (§1) We harvested control (L4 and L5) or axotomized (L5) ganglia, from control (SS) or hyperalgesic rats (SNL) respectively, between the 17th and 28th postoperative days. We sacrificed animals by decapitation under deep isoflurane anesthesia, excised ganglia through a lumbar incision, and at the same time confirmed accuracy of initial surgery.
For patch-clamp recordings, we placed excised DRG into separate 35 mm Petri dishes containing cold, oxygenated, Hanks Balanced Salt Solution (Gibko, Invitrogen, Grand Islan, NY), and minced them with iris scissors. We dissociated ganglia enzymatically in a solution containing 0.25 ml 0.05% w:v liberase blendzyme 2 (Roche Diagnostics Corp., Indianapolis, IN) and 0.25 ml DMEM/F12 with glutaMAX (Dulbecco's modified Eagle's medium F12; Gibco, Invitrogen Corp., Carlsbad, CA) in an incubator at 37°C for 30 min. […] Finally, we plated cells onto poly-l-lysine-coated 12-mm glass coverslips (Deutsche Spiegelglas; Carolina Biologic Supply, Burlington, NC), kept them in a humidified incubator at 37°C with 95% air and 5% CO2, and studied them within 3–8 h of dissociation.
We visualized plated neurons using an inverted Nikon Diaphot 300 microscope with Hoffman modulation optic system. […] Large neuronal somata, roughly correspond to large, myelinated Aβ fibers.
(§2) We recorded current passing through single channels in inside-out or cell-attached patch configurations. In cell-attached patches, both bath and pipette (extracellular) solutions were composed of the following: 140 mM KCl, 10 mM HEPES, 5.5 mM dextrose, and 1 mM EGTA. In inside-out patches, the bath (intracellular) solution contained 140 mM KCl, 1.2 mM MgCl2, 10 mM HEPES, 1.5 mM EGTA and 5.5 mM dextrose. The pipette (extracellular) solution was of the same composition as that used in cell-attached recordings. The pH of all solutions was adjusted to 7.4 with KOH. Osmolality was adjusted approximately to 300 mOsm/l by adding sucrose if necessary. We pulled patch micropipettes from borosilicate glass capillaries using a Flaming/Brown micropipette puller, model P-97 (Sutter, San Rafael, CA) and flame polished them with a microforge polisher (Narishige, Tokyo, Japan) prior to use. Their resistance ranged between 3 and 6 MΩ when filled with the internal solution, and placed into the recording solutions.
Sampling frequency of single-channel data was 5 KHz with a low-pass filter (1 KHz). […] We applied a conventional 50% current amplitude threshold level criterion to determine open events. Channel open probability (Po) was determined from the ratios of the area under the peaks in the amplitude histograms fitted by a Gaussian distribution. We calculated channel activity as NPo (where N is the number of observed channels in the patch) from data samples of either 30 s (in inside-out recordings), or 60 s (in cell-attached recordings), in the steady state. In inside-out recordings, NPo of the KATP channels was normalized to the baseline NPo value obtained before test drugs at bathing solution without ATP (indicating relative channel activity).

[2] = target: T1, KATP channels in large DRG neurons; test: Excised inside-out (cell-free) patch-clamp recording of KATP channel activity; format: biochemical
Source text: as §1
For patch-clamp recordings, we placed excised DRG into separate 35 mm Petri dishes containing cold, oxygenated, Hanks Balanced Salt Solution (Gibko, Invitrogen, Grand Islan, NY), and minced them with iris scissors. We dissociated ganglia enzymatically in a solution containing 0.25 ml 0.05% w:v liberase blendzyme 2 (Roche Diagnostics Corp., Indianapolis, IN) and 0.25 ml DMEM/F12 with glutaMAX (Dulbecco's modified Eagle's medium F12; Gibco, Invitrogen Corp., Carlsbad, CA) in an incubator at 37°C for 30 min. We then removed the supernatant after centrifugation and re-incubated cells at 37°C for another 30 min in 0.2 ml 0.0625% trypsin (Sigma, St. Louis, MO) and 0.0125% deoxyribonuclease 1 (150,000 U, Sigma, St. Louis, MO) in 0.25 ml DMEM. We then isolated cells by centrifugation (600 rpm for 5 min) after adding 0.25 ml trypsin inhibitor 0.1% w:v (Sigma St. Louis, MO), and re-suspended them in a culture medium consisting of 0.5 mM glutamine, 0.02 mg/ml gentamicin (Gibco, Invitrogen Corp., Carlsbad, CA), 100 ng/ml nerve growth factor 7S (Alomone Labs, Jerusalem, Israel), 2% (vol/vol) B-27 supplement (Gibco, Invitrogen Corp., Carlsbad, CA), and 98% (vol/vol) neural basal medium A (Gibco, Invitrogen Corp., Carlsbad, CA). Finally, we plated cells onto poly-l-lysine-coated 12-mm glass coverslips (Deutsche Spiegelglas; Carolina Biologic Supply, Burlington, NC), kept them in a humidified incubator at 37°C with 95% air and 5% CO2, and studied them within 3–8 h of dissociation.
We visualized plated neurons using an inverted Nikon Diaphot 300 microscope with Hoffman modulation optic system. We selected only large diameter neuronal somata (≥ 40 μm in diameter) because we have previously shown that only these develop KATP current alterations, as well as changes indicative of increased excitability after painful-like nerve injury by SNL [74]. Large neuronal somata, roughly correspond to large, myelinated Aβ fibers.
as §2
(§3) We recorded single channel currents at room temperature (20–25°C) using an Axon CNS Multiclamp 700B amplifier, digitized them using an analog-to-digital converter (Axon CNS DigiData 1440A; Axon Instruments, Foster, CA), and stored them into a PC. Sampling frequency of single-channel data was 5 KHz with a low-pass filter (1 KHz). We used pClamp version 10.2 software (Axon Instruments) for data acquisition and analysis. We applied a conventional 50% current amplitude threshold level criterion to determine open events. Channel open probability (Po) was determined from the ratios of the area under the peaks in the amplitude histograms fitted by a Gaussian distribution. […]

[3] = target: T2, SUR1-C717S/Kir6.2 channels (Rattus norvegicus, UniProt P70673+Q09429, C717S); test: Inside-out patch recording of mutated channels expressed in COS7 cells; format: biochemical; conditions: n = 7
T2 construct: A full-length Kir cDNA and a full-length SUR cDNA were subcloned into the mammalian expression vector; expressed in transfected cells; host or cells: COS7 cells, pcDNA3.1(-) vectors, GFP cDNA co-transfected as a separate reporter
Experimental: (§4) KATP channel-deficient COS7 cells were plated at a density of 3 × 10^5/dish (35 mm in diameter) and cultured in Dulbecco's modified Eagle's medium supplemented with 10% fetal calf serum. Rat Kir6.2 (GenBank X97041) and rat SUR1 (GenBank X97279) cDNAs were used for expression study. A truncated form of Kir6.2 lacking the last 36 amino acids at the C-terminus was obtained by polymerase chain reaction amplification. Polymerase chain reaction products were cloned into the pCR3.1 vector by using the TA cloning system (Invitrogen Corp., Carlsbad, CA, USA) and then cloned into the pcDNA3.1 (-) vector (Invitrogen Corp.) for mammalian expression. Point mutation of cysteine at position 717 (C717), C806, C1378, C1446, and C1491 within SUR1 to serine (C717S, C806S, C1378S, C1446S, and C1491S) was performed by using the Site-Directed Mutagenesis system (Invitrogen Corp.). All cDNA products were sequenced by using the BigDye terminator cycle sequencing kit and an ABI PRISM 377 DNA sequencer (Applied Biosystems, Foster City, CA) to confirm the sequence. A full-length Kir cDNA and a full-length SUR cDNA were subcloned into the mammalian expression vector pcDNA3.1 (-). For electrophysiological recordings, either wild-type or mutated pcDNA3.1 (-) Kir6.2 alone (1 μg), or pcDNA3.1 (-) Kir6.2 (1 μg) plus pcDNA3.1 (-) SUR1 (3 μg) were transfected into COS7 cells with green fluorescent protein cDNA as a reporter gene by using lipofectamine and Opti-MEN 1 reagents (Life Technologies Inc., Rockville, MD) according to the manufacturer's instructions. After transfection, cells were cultured at 37°C with 95% air and 5% CO2 for 48–72 h before being subjected to electrophysiological recordings.
as §2
as §3, with “We applied a conventional 50% current amplitude threshold level criterion to determine open events.” left out, “distribution. We calculated channel activity as NPo (where N is the number of observed channels in the patch) from data samples of either 30 s (in inside-out recordings), or 60 s (in cell-attached recordings), in the steady state.” for “distribution.”

[4] = target: T3, wild-type SUR1/Kir6.2 channels (Rattus norvegicus, UniProt P70673+Q09429); test: Inside-out patch recording of recombinant wild-type channels expressed in COS7 cells; format: biochemical
T3 construct: A full-length Kir cDNA and a full-length SUR cDNA were subcloned into the mammalian expression vector; expressed in transfected cells; host or cells: COS7 cells (KATP channel-deficient), pcDNA3.1(-) vectors, GFP cDNA co-transfected as a separate reporter
Experimental: as §4, §2
as §3, with “We applied a conventional 50% current amplitude threshold level criterion to determine open events.” left out, “distribution. We calculated channel activity as NPo (where N is the number of observed channels in the patch) from data samples of either 30 s (in inside-out recordings), or 60 s (in cell-attached recordings), in the steady state.” for “distribution.”

[5] = agent alone, vs. baseline/control

T3 sequence (Q09429 whole entry): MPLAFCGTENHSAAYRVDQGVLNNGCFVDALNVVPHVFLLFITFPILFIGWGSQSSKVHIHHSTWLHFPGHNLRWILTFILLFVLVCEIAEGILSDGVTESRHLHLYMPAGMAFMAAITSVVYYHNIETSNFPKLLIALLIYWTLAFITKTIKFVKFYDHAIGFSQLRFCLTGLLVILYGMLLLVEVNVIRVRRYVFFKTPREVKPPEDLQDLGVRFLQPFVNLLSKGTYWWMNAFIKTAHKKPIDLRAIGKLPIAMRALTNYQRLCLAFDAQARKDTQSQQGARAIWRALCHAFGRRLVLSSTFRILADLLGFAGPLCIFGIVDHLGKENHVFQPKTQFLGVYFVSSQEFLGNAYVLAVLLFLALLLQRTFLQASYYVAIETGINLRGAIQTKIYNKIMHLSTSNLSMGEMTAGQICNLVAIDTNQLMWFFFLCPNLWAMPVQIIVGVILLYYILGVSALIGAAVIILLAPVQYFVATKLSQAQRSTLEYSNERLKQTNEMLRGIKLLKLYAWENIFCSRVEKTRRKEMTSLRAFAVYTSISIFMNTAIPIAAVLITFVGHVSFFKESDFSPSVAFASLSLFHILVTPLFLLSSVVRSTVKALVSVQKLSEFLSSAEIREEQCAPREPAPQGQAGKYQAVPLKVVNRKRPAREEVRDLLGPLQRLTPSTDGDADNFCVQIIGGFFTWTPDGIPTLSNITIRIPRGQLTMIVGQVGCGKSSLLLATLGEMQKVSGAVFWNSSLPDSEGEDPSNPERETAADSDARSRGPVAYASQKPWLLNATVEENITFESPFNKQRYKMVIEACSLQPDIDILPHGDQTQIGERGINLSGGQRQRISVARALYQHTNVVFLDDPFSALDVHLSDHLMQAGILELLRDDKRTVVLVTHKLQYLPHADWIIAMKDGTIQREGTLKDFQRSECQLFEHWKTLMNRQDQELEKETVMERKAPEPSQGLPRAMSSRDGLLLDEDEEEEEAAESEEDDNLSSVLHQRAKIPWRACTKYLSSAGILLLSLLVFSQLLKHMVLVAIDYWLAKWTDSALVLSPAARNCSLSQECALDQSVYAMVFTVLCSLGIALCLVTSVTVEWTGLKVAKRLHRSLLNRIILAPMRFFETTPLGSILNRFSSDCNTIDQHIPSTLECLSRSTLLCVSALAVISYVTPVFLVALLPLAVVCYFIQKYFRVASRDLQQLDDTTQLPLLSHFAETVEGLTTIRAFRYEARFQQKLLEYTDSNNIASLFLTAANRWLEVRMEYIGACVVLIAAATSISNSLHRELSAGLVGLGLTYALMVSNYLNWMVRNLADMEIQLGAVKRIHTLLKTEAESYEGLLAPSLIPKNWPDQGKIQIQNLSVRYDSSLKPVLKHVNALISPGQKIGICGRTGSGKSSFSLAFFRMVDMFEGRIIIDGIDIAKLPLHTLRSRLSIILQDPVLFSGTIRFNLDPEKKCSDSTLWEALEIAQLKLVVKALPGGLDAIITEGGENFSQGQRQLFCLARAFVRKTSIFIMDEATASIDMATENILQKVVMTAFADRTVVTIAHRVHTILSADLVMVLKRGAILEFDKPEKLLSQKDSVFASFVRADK
T3 sequence (P70673 whole entry): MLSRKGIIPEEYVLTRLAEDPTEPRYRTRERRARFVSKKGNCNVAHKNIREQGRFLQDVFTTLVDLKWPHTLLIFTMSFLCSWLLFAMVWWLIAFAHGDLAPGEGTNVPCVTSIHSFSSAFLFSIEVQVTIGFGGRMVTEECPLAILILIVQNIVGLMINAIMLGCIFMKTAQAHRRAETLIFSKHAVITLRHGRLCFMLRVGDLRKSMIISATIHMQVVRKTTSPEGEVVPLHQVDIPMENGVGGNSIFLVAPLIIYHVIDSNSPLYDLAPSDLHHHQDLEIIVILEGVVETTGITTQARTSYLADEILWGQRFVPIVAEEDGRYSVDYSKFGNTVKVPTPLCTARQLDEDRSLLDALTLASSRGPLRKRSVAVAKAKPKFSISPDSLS
T1 sequence (Q09429 whole entry): as the sequence (Q09429 whole entry) above
T1 sequence (P70673 whole entry): as the sequence (P70673 whole entry) above
T2 sequence (Q09429 whole entry C717S): as the sequence (Q09429 whole entry) above, with C717S counted along it
T2 sequence (P70673 whole entry): as the sequence (P70673 whole entry) above

- effect on KATP channel activity ([1]; zaprinast, control and SNL neurons, data not shown): no effect
Compound: CCCOc1ccccc1-c1nc2nn[nH]c2c(=O)[nH]1 [zaprinast]

Compound: CCN1C(=O)C=CC1=O [NEM, N-ethylmaleimide]
- effect on basal channel activity ([2]; NEM 5 mM, 1 mM [ATP]i, n = 6): significantly decreased
- effect on the activating effect of SNAP on KATP channels ([2]; SS neurons, NEM 5 mM before SNAP 100 μM, 1 mM [ATP]i, n = 6): completely eliminated

- effect on recombinant channel currents ([3]; 1 mM [ATP]i): strongly inhibited
- IC50 ([3]; read-out: ATP-sensitivity IC50): 13.1 µM
- effect on channel activity in inside-out patches ([2]; ATP 1 mM, SS and SNL, -60 mV): reversibly blocked
- IC50 ([2]; SNL neurons, various intracellular ATP concentrations, n = 5, read-out: ATP sensitivity IC50): 18.1 µM
- IC50 ([2]; SS neurons, various intracellular ATP concentrations, n = 5, read-out: ATP sensitivity IC50): 14.7 µM
- IC50 ([2]; absence of SNAP, SS neurons, n = 7, read-out: IC50 value for [ATP]i): 12.8 µM
- IC50 ([2]; presence of SNAP, SS neurons, n = 7, read-out: IC50 value for [ATP]i): 54.4 µM
- effect on recombinant channel currents ([4]; 1 mM [ATP]i, COS7 cells, inside-out): strongly inhibited
- IC50 ([4]; n = 7, read-out: ATP-sensitivity IC50): 11.6 µM
Compound: Nc1ncnc2c1ncn2[C@@H]1O[C@H](COP(=O)(O)OP(=O)(O)OP(=O)(O)O)[C@@H](O)[C@H]1O [ATP]

- time to steady-state activation after exposure ([1]; 8-Br-cGMP 100 μM): 2 to 3 min
- effect when applied after SNAP-induced steady-state activation ([1]; 8-Br-cGMP at least 5 min after SNAP 100 μM, SS and SNL neurons, n = 5 each): additional further channel opening
- NPo 5 min after application of 8-Br-cGMP ([1]; SNL neurons, 8-Br-cGMP 100 μM, n = 7): 0.17 ± 0.06
- NPo 5 min after application of 8-Br-cGMP ([1]; SS neurons, 8-Br-cGMP 100 μM, n = 8): 0.22 ± 0.08
Compound: Nc1nc2c(nc(Br)n2[C@@H]2O[C@@H]3COP(=O)([O-])O[C@H]3[C@H]2O)c(=O)[nH]1.[Na+] [8-Br-cGMP, 8-bromo-cGMP sodium salt]

Compound: COC(=O)[C@@]1(OC)C[C@H]2O[C@]1(C)n1c3ccccc3c3c4c(c5c6ccccc6n2c5c31)C(=O)N(C)C4 [KT 5823]
- effect of pretreatment on 8-Br-cGMP-induced KATP channel activation ([1]; KT 5823, SS and SNL neurons): significantly reduces
- NPo 10 min after SNAP following pretreatment with KT 5823 ([1]; SNL neurons, n = 6): 0.26 ± 0.19
- NPo 10 min after SNAP following pretreatment with KT 5823 ([1]; SS neurons, n = 5): 0.14 ± 0.17
- direct effect on KATP channels in inside-out patches [2, 5]: neither ODQ nor KT 5823 had any direct effect

Compound: nitric oxide [NO]
- potency of direct activation of cloned channels relative to native channels (less potent) ([4]; cloned SUR1/Kir6.2 in COS7 cells vs. native channels in DRG neurons): approximately 3 fold

- NPo 10 min after SNAP following pretreatment with ODQ ([1]; SNL neurons, n = 6): 0.27 ± 0.16
- NPo 10 min after SNAP following pretreatment with ODQ ([1]; SS neurons, n = 6): 0.25 ± 0.09
Compound: O=c1onc2cnc3ccccc3n12 [ODQ, 1H-[1,2, 4] oxadiazolo [4,3-a] quinoxalin-1-one]
- direct effect on KATP channels in inside-out patches [2, 5]: neither ODQ nor KT 5823 had any direct effect

Compound: O=[N+]([O-])c1ccc(O)c([N+](=O)[O-])c1 [DNP, 2,4-Dinitrophenol]
- NPo, DNP-induced channel opening ([1]; SNL neurons, n = 8): 0.208 ± 0.16
- NPo, DNP-induced channel opening ([1]; SS neurons, n = 8): 0.442 ± 0.26
- direct effect on KATP channels in inside-out patches ([2]; DNP 100 μM, SS and SNL, vs. baseline): no direct effect

- baseline NPo after pretreatment with L-NAME ([1]; SNL neurons, n = 7): 0.06 ± 0.04
- baseline NPo after pretreatment with L-NAME ([1]; SS neurons, n = 7): 0.114 ± 0.06
- direct effect on KATP channels in inside-out patches [2, 5]: no direct effect
Compound: COC(=O)[C@@H](N)CCCNC(N)=N[N+](=O)[O-] [L-NAME, NG-nitro-L-arginine methyl ester]
